# Assays:
# Type in all cases: in vitro ADME
# [1] = target: T1, UGT1A1 (Homo sapiens, UniProt P22309); assay: Glucuronidation with recombinant UGT1A1; set-up: His tag; purchased Corning, NY, USA (through DIAG-MED, Poland); host or cells: baculovirus-insect cells (Supersomes); Results say Sf9 cells; key: −: the lack of UGT activity; +: the significant UGT activity; details: 0.05 mM compound, 1 mg/mL UGT, 5 mM UDPGA
# T1 sequence (P22309 26-533): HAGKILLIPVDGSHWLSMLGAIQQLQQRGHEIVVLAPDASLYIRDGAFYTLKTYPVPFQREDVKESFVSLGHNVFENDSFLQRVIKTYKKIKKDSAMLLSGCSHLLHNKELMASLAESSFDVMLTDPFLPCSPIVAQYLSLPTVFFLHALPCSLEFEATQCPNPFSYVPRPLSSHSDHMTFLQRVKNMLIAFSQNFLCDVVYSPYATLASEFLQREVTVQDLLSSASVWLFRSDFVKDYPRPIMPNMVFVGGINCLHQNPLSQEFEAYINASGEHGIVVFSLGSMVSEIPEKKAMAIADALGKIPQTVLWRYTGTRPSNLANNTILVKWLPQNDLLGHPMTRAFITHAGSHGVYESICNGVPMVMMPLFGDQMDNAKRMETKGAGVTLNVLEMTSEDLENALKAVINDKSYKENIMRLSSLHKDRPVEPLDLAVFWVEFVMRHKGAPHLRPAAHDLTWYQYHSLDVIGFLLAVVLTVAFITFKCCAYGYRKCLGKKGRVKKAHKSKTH
# Procedure: (§1) Recombinant UGT isoform protein (1 mg/mL) was assayed for activity toward tested UAs as follows. The proteins were incubated in a buffer containing 0.1 M HEPES (pH 7.4), 8 mM MgCl2 and alamethicin (25 μg/mL) with either 0.05 mM substrate in total volume 70 µL (alamethicin was added to permeabilize the membrane). Substrates were also in buffer HEPES, pH 7.4. Reactions were started by the addition of UDPGA (5 mM) and were incubated for specified time at 37 °C. The reactions were stopped by the addition of 8.75 µL of 1 M HCl, followed by centrifugation at 13400 rpm for 10 min to pellet the denatured protein. The supernatant fractions were used for HPLC analysis. Control reactions omitting substrate were run with each assay. All incubations were performed in two repetitions.
# [2] = target: T2, P4502C19 (Homo sapiens, UniProt P33261); assay: Metabolism with human recombinant P4502C19; details: 0.05 mM compound, 1 mg/mL P4502C19, 2 mM NADPH, 30 min
# T2 construct: purchased Cypex, Dundee, Scotland, UK (through Tebu-Bio); host or cells: Escherichia coli (Bactosomes)
# T2 sequence (P33261 whole entry): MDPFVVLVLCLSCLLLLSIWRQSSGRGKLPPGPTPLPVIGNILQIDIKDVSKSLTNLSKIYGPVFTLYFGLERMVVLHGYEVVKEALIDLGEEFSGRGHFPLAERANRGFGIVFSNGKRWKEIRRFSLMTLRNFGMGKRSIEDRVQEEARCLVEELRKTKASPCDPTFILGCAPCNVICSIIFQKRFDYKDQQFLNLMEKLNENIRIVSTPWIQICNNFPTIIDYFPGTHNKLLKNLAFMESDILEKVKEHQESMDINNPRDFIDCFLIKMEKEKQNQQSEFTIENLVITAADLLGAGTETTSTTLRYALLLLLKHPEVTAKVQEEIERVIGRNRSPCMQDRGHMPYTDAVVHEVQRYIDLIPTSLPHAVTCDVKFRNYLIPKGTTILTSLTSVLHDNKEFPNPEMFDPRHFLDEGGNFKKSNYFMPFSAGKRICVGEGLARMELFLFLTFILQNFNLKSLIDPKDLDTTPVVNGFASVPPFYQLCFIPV
# Procedure: UT-RLMs (2 mg/mL) and P450-RLMs induced with Dex, 3MC, or PB and recombinant P4502C19 and P4503A4 (1 mg/mL) were assayed for activity toward tested UAs as follows. The proteins were incubated in a buffer containing 0.1 M HEPES (pH 7.4), 2 mM MgCl2 with 0.05 mM substrate in total volume 70 µL. Substrates were added also in buffer HEPES, pH 7.4. Reactions were started by the addition of NADPH (2 mM) and were incubated for specified time at 37 °C. The reactions were stopped by the addition of 8.75 µL of 1 M HCl, followed by centrifugation at 13,400 rpm for 10 min to pellet the denatured protein. The supernatant fractions were used for high-performance liquid chromatography (HPLC) analysis. Control reactions omitting substrate were run with each assay. All incubations were performed in two repetitions.
# [3] = target: T3, UGT 2B17 (Homo sapiens, UniProt O75795); assay: Glucuronidation with recombinant UGT2B17; set-up: key: −: the lack of UGT activity; +: the significant UGT activity; details: 0.05 mM compound, 1 mg/mL UGT, 5 mM UDPGA
# T3 construct: purchased Corning, NY, USA (through DIAG-MED, Poland); host or cells: baculovirus-insect cells (Supersomes)
# T3 sequence (O75795 24-530): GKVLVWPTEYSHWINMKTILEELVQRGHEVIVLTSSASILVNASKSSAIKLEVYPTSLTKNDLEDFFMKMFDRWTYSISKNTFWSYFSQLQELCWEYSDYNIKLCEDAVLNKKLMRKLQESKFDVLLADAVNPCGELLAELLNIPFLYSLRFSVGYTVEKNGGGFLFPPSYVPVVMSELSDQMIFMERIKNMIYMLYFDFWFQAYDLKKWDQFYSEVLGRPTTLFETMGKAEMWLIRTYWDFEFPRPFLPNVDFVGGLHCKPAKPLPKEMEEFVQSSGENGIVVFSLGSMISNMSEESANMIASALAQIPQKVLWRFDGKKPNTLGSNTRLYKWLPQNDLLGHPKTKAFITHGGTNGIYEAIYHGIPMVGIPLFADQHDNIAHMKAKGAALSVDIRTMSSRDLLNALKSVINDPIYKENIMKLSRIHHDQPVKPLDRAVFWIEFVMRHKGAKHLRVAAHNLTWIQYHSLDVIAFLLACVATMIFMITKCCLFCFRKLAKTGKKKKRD
# Procedure: as §1
# [4] = target: T4, UGT 1A9 (Homo sapiens, UniProt O60656); assay: Glucuronidation with recombinant UGT1A9; set-up: key: −: the lack of UGT activity; +: the significant UGT activity; details: 0.05 mM compound, 1 mg/mL UGT, 5 mM UDPGA
# T4 construct: His tag; purchased Corning, NY, USA (through DIAG-MED, Poland); host or cells: baculovirus-insect cells (Supersomes); Results say Sf9 cells
# T4 sequence (O60656 26-530): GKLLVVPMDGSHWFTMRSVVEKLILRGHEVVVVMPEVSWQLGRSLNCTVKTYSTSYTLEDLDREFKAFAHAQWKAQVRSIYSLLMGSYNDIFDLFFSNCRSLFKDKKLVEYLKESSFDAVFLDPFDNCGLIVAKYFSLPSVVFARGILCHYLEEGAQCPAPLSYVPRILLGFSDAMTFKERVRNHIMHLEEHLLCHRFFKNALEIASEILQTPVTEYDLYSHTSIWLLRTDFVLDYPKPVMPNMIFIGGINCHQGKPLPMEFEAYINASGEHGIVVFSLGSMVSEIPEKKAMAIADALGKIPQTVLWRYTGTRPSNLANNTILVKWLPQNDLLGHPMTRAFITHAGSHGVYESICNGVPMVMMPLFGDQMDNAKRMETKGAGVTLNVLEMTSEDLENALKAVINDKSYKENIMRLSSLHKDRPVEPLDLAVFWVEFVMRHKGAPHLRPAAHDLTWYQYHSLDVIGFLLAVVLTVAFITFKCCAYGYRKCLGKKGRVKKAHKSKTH
# Procedure: as §1
structure (smiles),measurement,setting,value
Cc1ccc([N+](=O)[O-])c2c(NCCCN(C)CCCNc3ccc4ncn5c6ccc(O)cc6c(=O)c3c45)c3ccccc3nc12 [C-2045],Glucuronidation potency UGT 1A1,[1],+
same,substrate transformed,[2],11%
same,Glucuronidation potency UGT 2B17,[3],−
same,Glucuronidation potency UGT 1A9,[4],+
Cc1ccc([N+](=O)[O-])c2c(NCCCN(C)CCCNc3ccc4ncn5c6ccccc6c(=O)c3c45)c3ccccc3nc12 [C-2053],Glucuronidation potency UGT 1A1,[1],−
same,substrate transformed,[2],~64%
same,Glucuronidation potency UGT 2B17,[3],−
same,Glucuronidation potency UGT 1A9,[4],−
CN(CCCNc1c2ccccc2nc2cccc([N+](=O)[O-])c12)CCCNc1ccc2ncn3c4ccccc4c(=O)c1c23 [C-2028],Glucuronidation potency UGT 1A1,[1],−
same,substrate transformed,[2],59%
same,Glucuronidation potency UGT 2B17,[3],−
same,Glucuronidation potency UGT 1A9,[4],−
